Results reported in ChEMBL document CHEMBL1125459, “Synthesis and biological activity of 8a-phenyldecahydroquinolines as probes of PCP's binding conformation. A new PCP-like compound with increased in vivo potency” (J Med Chem, 1992).

Legend:
[1] = Compound was evaluated for its affinity towards NMDA receptor in male Swiss Webster mice.
[2] = Compound was evaluated for its affinity towards N-methyl-D-aspartate glutamate receptor in male Swiss Webster mice.
Mus musculus = assay: Compound was evaluated in vivo for effective dose by subcutaneous administration in mice using cGMP assay; format: functional; conditions: sc

## c1ccc([C@@]23CCCC[C@@H]2CCCN3)cc1
[1]
  IC50: 159 nM

## c1ccc([C@]23CCCC[C@H]2CCCN3)cc1
[2]
  IC50: 467 nM

## c1ccc([C@@]23CCCC[C@H]2CCCN3)cc1
Mus musculus
  ED50: 0.16 mg/kg
[2]
  IC50: 66.3 nM

## c1ccc([C@]23CCCC[C@@H]2CCCN3)cc1
[1]
  IC50: 94.6 nM

## C[C@]12N[C@H](Cc3ccccc31)c1ccccc12 [DIZOCILPINE]
Mus musculus
  ED50: 0.3 mg/kg
[2]
  IC50: 1.4 nM

## c1ccc(C2(N3CCCCC3)CCCCC2)cc1 [PHENCYCLIDINE]
[2]
  IC50: 35 nM
